The subject of one test is THP−1. The test can be described thus: Cell viability assay (CellTiter-Glo), THP-1. The class given is cell-based. The conditions noted are these: THP-1 cells, 72 hr; for GI50: Homo sapiens. As for the experimental part:
(§1) Cell viability assay was performed based on the following brief procedures. Cells were plated at the density of 5K/well with volume of […] in 96-well white plate and clear bottom plates. 20 μL of veh. or compound was added at proper concentration to the well. The final volume is 200 μL, with final conc. of DMSO32 0.1%, 11 points, triplicates. The cells were then treated at 37° C. in the TC incubator for 72 hr. Equal volume (200 μL) of CellTiter-Glo reagent (Promega) was added to the well and protect from light at room temperature for 15 min. The chemiluminicent was measured with EnSight (Perkin Elmer). GraphPad Prism non-linear regression, Log[inhibitor] response with four parameters were used to calculate GI50.

Another test deals with T1, FLT3 (Homo sapiens, UniProt P36888).
T1 construct: purchased ThermoFisher PV3182
T1 sequence (P36888 27-993): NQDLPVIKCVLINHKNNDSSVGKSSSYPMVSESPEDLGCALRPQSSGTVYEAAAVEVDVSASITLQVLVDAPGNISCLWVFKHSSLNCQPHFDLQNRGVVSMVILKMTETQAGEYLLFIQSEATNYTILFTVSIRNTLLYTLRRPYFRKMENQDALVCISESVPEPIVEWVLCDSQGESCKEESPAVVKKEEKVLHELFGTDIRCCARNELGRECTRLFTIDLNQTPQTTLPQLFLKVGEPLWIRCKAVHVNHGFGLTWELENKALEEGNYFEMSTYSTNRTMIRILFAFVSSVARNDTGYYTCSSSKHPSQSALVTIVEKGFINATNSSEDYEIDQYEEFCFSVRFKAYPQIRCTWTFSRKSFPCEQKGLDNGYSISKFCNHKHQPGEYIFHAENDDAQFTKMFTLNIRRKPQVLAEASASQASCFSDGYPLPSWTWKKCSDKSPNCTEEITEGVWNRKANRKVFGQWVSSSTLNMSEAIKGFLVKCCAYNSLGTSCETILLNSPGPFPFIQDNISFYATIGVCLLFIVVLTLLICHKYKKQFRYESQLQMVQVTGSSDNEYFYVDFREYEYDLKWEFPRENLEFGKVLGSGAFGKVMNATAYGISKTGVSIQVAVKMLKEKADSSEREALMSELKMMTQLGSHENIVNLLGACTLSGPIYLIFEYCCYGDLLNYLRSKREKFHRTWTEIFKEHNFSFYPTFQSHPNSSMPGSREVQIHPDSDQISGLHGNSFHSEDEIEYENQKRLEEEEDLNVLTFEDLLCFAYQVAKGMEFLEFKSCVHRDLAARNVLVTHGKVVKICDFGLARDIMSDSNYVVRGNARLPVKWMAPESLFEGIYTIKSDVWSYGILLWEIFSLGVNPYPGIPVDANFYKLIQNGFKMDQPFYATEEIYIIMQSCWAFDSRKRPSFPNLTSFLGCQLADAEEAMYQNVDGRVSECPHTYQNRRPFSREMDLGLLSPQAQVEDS
The test is described as follows: Caliper mobility shift kinase inhibition assay, FLT3. The class given is biochemical. Conditions: recombinant kinase; enzyme 0.1 nM, ATP 95 μM, incubation 3 hr. As for the experimental part: Compounds' inhibition of recombinant kinases (FGR, FLT3, FMS, KIT, or RON) was measured using Caliper mobility shift assay, which is based on the difference in capillary electrophoresis mobility of a fluorescent-tagged peptide as a result of a phosphorylation by the kinase under study. Reactions were started by the addition of various concentrations of a compound (originally in DMSO solution) to a kinase solution in assay buffer followed by addition of a mixture of ATP and a fluorescent-tagged peptide substrate in assay buffer. Concentrations of the enzyme, ATP and the peptide were pre-optimized so that 15% substrate conversion to ensure initial velocity measurements. After incubation for 3 hours at room temperature, the kinase reaction was quenched by the addition of a concentrated EDTA solution before analysis on a LabChip EZ Reader II to yield percentage inhibition by comparing to the DMSO control.
Table 2 below summarizes the assay conditions for the characterization of the kinase inhibition properties of the disclosed compounds.

In a further test the test system is Kasumi−1. The test is described as follows: Cell viability assay (CellTiter-Glo), Kasumi-1. Format: cell-based. The conditions noted are these: Homo sapiens, Kasumi-1 cells, 72 hr. As for the experimental part: as §1
The subject of another test is MV4−11. The test can be described thus: Cell viability assay (CellTiter-Glo), MV4-11. The class given is cell-based. The conditions noted are these: Homo sapiens, MV4-11 cells, 72 hr. The protocol:
as §1

On to `Cc1nc(NCCNC(=O)[C@H](C)N(C)C(=O)/C=C/CN(C)C)cc(Nc2ncc(-c3ccccc3)s2)n1` [Compound 11], for which the GI50 with THP−1 is at least 1000 nM; in the test with Kasumi−1, below 10 nM; with MV4−11, below 10 nM. Moreover, at FLT3, the IC50 is below 10 nM.

Consider `C=CC(=O)N(C)[C@@H](C)C(=O)NC[C@H]1CCc2c([nH]c(/C=C3\C(=O)Nc4ccc(F)cc43)c2C)C1` [Compound 27, (2S)—N-[[(6S)-2-[(5-fluoro-2-oxo-indolin-3-ylidene)methyl]-3-methyl-4,5,6,7-tetrahydro-1H-indol-6-yl]methyl]-2-[methyl(prop-2-enoyl)amino]propanamide], for which the 50% growth inhibitory concentration (GI50) is at least 1000 nM in the test with THP−1 and below 10 nM with MV4−11. Further, on FLT3, the IC50 is below 10 nM.

As to `C=CC(=O)N(C)[C@@H](C)C(=O)NC[C@@H]1CCc2c([nH]c(/C=C3\C(=O)Nc4ccc(F)cc43)c2C)C1` [Compound 28, (2S)—N-[[(6R)-2-[(5-fluoro-2-oxo-indolin-3-ylidene)methyl]-3-methyl-4,5,6,7-tetrahydro-1H-indol-6-yl]methyl]-2-[methyl(prop-2-enoyl)amino]propanamide], the values for the GI50 in the test with THP−1 and with MV4−11 were at least 1000 nM and below 10 nM, respectively. For the same molecule, the IC50 on FLT3 is below 10 nM.

Regarding `CC#CC(=O)N(C)[C@@H](C)C(=O)NCCNC(=O)c1c[nH]c(/C=C2\C(=O)Nc3ccc(F)cc32)c1C` [Compound 25, N-[2-[[(2S)-2-[but-2-ynoyl(methyl)amino]propanoyl]amino]ethyl]-5-[(5-fluoro-2-oxo-indolin-3-ylidene)methyl]-4-methyl-1H-pyrrole-3-carboxamide], the figures for the GI50 in the test with THP−1 and in the test with MV4−11 were at least 1000 nM and below 10 nM, respectively. In addition, the IC50 at FLT3 is below 10 nM.

Consider `C=CC(=O)N1CCC[C@H]1C(=O)NCCNc1cc(Nc2ncc(-c3ccncc3)s2)nc(C)n1` [Compound 22, (2S)—N-[2-[[2-methyl-6-[[5-(4-pyridyl)thiazol-2-yl]amino]pyrimidin-4-yl]amino]ethyl]-1-prop-2-enoyl-pyrrolidine-2-carboxamide], for which the IC50 on FLT3 is below 10 nM.

Regarding `Cc1cc(Nc2cc(NCCNC(=O)[C@@H]3COCCN3C(=O)/C=C/CN(C)C)nc(Nc3ccc(CC#N)cc3)n2)n[nH]1` [Compound 2], the GI50 in the test on THP−1 is at least 1000 nM; in the test on Kasumi−1, 100 to 1000 nM; with MV4−11, 10 to 100 nM. The IC50 on FLT3 is below 10 nM.

For `C=CC(=O)N(C)[C@@H](C)C(=O)NCCNC(=O)c1c[nH]c(/C=C2\C(=O)Nc3ccc(F)cc32)c1C` [Compound 23, 5-[(5-fluoro-2-oxo-indolin-3-ylidene)methyl]-4-methyl-N-[2-[[(2S)-2-[methyl(prop-2-enoyl)amino]propanoyl]amino]ethyl]-1H-pyrrole-3-carboxamide], the GI50 is at least 1000 nM in the test on THP−1 and below 10 nM in the test on MV4−11. The IC50 at FLT3 was below 10 nM.

Consider `C=CC(=O)N(C)[C@@H](C)C(=O)NCCNc1cc(Nc2ncc(C3CCC3)s2)nc(CC)n1` [Compound 6, (2S)—N-[2-[[6-[(5-cyclobutylthiazol-2-yl)amino]-2-ethyl-pyrimidin-4-yl]amino]ethyl]-2-[methyl(prop-2-enoyl)amino]propanamide], for which the values for the GI50 in the test with THP−1, in the test on Kasumi−1 and with MV4−11 were 10 to 100 nM, below 10 nM and below 10 nM, respectively. Moreover, the IC50 at FLT3 is below 10 nM.

For `C=CC(=O)N1CCN(C)C[C@H]1C(=O)NCCOc1cc(Nc2ncc(-c3ccccc3)s2)nc(C)n1` [Compound 15, (2S)-4-methyl-N-[2-[2-methyl-6-[(5-phenylthiazol-2-yl)amino]pyrimidin-4-yl]oxyethyl]-1-prop-2-enoyl-piperazine-2-carboxamide], the concentration for half-maximal inhibition (IC50) on FLT3 is below 10 nM.

As for `Cc1c(/C=C2\C(=O)Nc3ccc(F)cc32)[nH]c2c1CC[C@H](CNC(=O)[C@H](C)N(C)C(=O)/C=C/CN(C)C)C2` [Compound 29, (E)-4-(dimethylamino)-N-[(1S)-2-[[(6S)-2-[(Z)-(5-fluoro-2-oxo-indolin-3-ylidene)methyl]-3-methyl-4,5,6,7-tetrahydro-1H-indol-6-yl]methylamino]-1-methyl-2-oxo-ethyl]-N-methyl-but-2-enamide], the figures for the GI50 in the test on THP−1 and with MV4−11 were at least 1000 nM and below 10 nM, respectively. The IC50 at FLT3 was below 10 nM.

Take `C=CC(=O)N(C)[C@@H](C)C(=O)N[C@H]1CCN(c2cc(Nc3ncc(-c4ccncc4)s3)nc(C)n2)C1` [Compound 20, (2S)-2-[methyl(prop-2-enoyl)amino]-N-[(3S)-1-[2-methyl-6-[[5-(4-pyridyl)thiazol-2-yl]amino]pyrimidin-4-yl]pyrrolidin-3-yl]propanamide]: the IC50 at FLT3 is below 10 nM.

As to `C=CC(=O)N1CCC[C@H]1C(=O)N[C@H]1CCN(c2cc(Nc3ncc(-c4ccncc4)s3)nc(C)n2)C1` [Compound 21, (2S)—N-[(3S)-1-[2-methyl-6-[[5-(4-pyridyl)thiazol-2-yl]amino]pyrimidin-4-yl]pyrrolidin-3-yl]-1-prop-2-enoyl-pyrrolidine-2-carboxamide], the 50% inhibitory concentration (IC50) at FLT3 is below 10 nM.

On to `CCC(=O)N(C)[C@@H](C)C(=O)NCCNC(=O)c1c[nH]c(/C=C2\C(=O)Nc3ccc(F)cc32)c1C` [Compound 24, 5-[(5-fluoro-2-oxo-indolin-3-ylidene)methyl]-4-methyl-N-[2-[[(2S)-2-[methyl(propanoyl)amino]propanoyl]amino]ethyl]-1H-pyrrole-3-carboxamide], for which the “THP−1 GI50” value in the test with THP−1 was “=”. Besides, the IC50 on FLT3 fell in the range of 10 to 100 nM. The molecule also came in with a GI50 in the test on MV4−11 of 10 to 100 nM.

With `C=CC(=O)N(C)[C@@H](C)C(=O)NCCOc1cc(Nc2ncc(C3CCC3)s2)nc(CC)n1` [Compound 7, (2S)—N-[2-[6-[(5-cyclobutylthiazol-2-yl)amino]-2-ethyl-pyrimidin-4-yl]oxyethyl]-2-[methyl(prop-2-enoyl)amino]propanamide], the GI50 in the test on THP−1 was 100 to 1000 nM; in the test with Kasumi−1, below 10 nM; in the test on MV4−11 it was below 10 nM. For the same molecule, the IC50 on FLT3 is below 10 nM.

Regarding `C/C=C/C(=O)N(C)[C@@H](C)C(=O)NCCOc1cc(Nc2ncc(-c3ccccc3)s2)nc(C)n1` [Compound 16, N-methyl-N-[(1S)-1-methyl-2-[2-[2-methyl-6-[(5-phenylthiazol-2-yl)amino]pyrimidin-4-yl]oxyethylamino]-2-oxoethyl]but-2-enamide], at FLT3, the IC50 lay in the range of 10 to 100 nM.

With `Cc1c(/C=C2\C(=O)Nc3ccc(F)cc32)[nH]c2c1CC[C@@H](CNC(=O)[C@H](C)N(C)C(=O)/C=C/CN(C)C)C2` [Compound 30, (E)-4-(dimethylamino)-N-[(1S)-2-[[(6R)-2-[(Z)-(5-fluoro-2-oxo-indolin-3-ylidene)methyl]-3-methyl-4,5,6,7-tetrahydro-1H-indol-6-yl]methylamino]-1-methyl-2-oxo-ethyl]-N-methyl-but-2-enamide], the GI50 with THP−1 was at least 1000 nM; in the test on MV4−11, below 10 nM. Besides, the IC50 at FLT3 is below 10 nM.

As to `C=CC(=O)N1CCOC[C@H]1C(=O)NCCOc1cc(Nc2ncc(-c3ccccc3)s2)nc(C)n1` [Compound 14, (3S)—N-[2-[2-methyl-6-[(5-phenylthiazol-2-yl)amino]pyrimidin-4-yl]oxyethyl]-4-prop-2-enoyl-morpholine-3-carboxamide], the IC50 on FLT3 was below 10 nM.

Take `C=CC(=O)N(C)[C@@H](C)C(=O)NCCN(C)c1cc(Nc2ncc(-c3ccncc3)s2)nc(C)n1` [Compound 19, (2S)—N-[2-[methyl-[2-methyl-6-[[5-(4-pyridyl)thiazol-2-yl]amino]pyrimidin-4-yl]amino]ethyl]-2-[methyl(prop-2-enoyl)amino]propanamide]: on FLT3, the IC50 is below 10 nM.
